In patent publication US20210238192A1, “VASCULAR ADHESION PROTEIN-1 (VAP-1) MODULATORS AND THERAPEUTIC USES THEREOF” (Blade Therapeutics, Inc., priority 2018, published 2021):
Structures can show the parent of a compound that is named as a salt.

Assays:
Assay type in all cases: biochemical
Human MAO-B = molecular target: T1, Human MAO-B (Homo sapiens, UniProt P27338); assay: MAO-B inhibition (Amplex Red continuous fluorescence assay); conditions: 30 min pre-incubation at room temp; substrate benzylamine; read-out: Human MAO-B IC50
T1 sequence (P27338 1-520): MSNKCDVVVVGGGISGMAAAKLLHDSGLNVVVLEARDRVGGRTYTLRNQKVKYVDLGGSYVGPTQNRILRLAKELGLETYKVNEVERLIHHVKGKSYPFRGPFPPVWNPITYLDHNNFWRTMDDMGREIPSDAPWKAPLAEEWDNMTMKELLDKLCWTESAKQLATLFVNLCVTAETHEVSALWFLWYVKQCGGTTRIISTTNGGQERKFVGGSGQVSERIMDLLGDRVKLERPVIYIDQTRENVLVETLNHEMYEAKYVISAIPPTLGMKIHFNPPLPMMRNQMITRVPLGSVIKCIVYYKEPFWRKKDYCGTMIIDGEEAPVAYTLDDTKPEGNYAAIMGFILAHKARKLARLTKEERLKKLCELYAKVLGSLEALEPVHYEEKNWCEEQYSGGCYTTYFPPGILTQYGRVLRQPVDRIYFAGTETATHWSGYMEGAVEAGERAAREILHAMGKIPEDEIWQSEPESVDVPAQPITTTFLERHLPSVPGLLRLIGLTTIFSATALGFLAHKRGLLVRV
Description: (§1) VAP-1, DAO, MAO-A, MAO-B, and HRP activity and inhibition thereof was assessed by means of a continuous fluorescence assay. The Amplex Red Hydrogen Peroxide/Peroxidase Assay (ThermoFisher) was optimized for detecting amine oxidase (AO) activity. In an enzyme-coupled reaction, the H2O2 generated by AO reacts 1:1 with Amplex Red reagent to produce fluorescent product resorufin.
(§2) Assays were typically setup in black 384-well plates using automated liquid handling as follows. VAP-1/MAO assay buffer contains […] sodium phosphate, pH 7.4; DAO assay buffer contains 50 mM HEPES, pH 7.5; HRP assay buffer contains 100 mM CHES, 1 mM MgCl2, 50 mM NaCl, 0.05% BSA, pH 9.0. Inhibitors were serially diluted in DMSO and used to setup 2× mixtures with AO in the aforementioned buffer. After 30 min pre-incubation at 37° C. (VAP-1, HRP) or room temp (DAO, MAO), the reaction was initiated by adding a 2× mix of Amplex Red, HRP (coupling enzyme), and substrate (benzylamine, histamine, tyramine, benzylamine, H2O2, for VAP-1, DAO, MAO-A, MAO-B, and HR, respectively) in the same buffer. Reaction progress curve data were typically collected for 5 min using excitation/emission wavelengths of 510 nm/565 nm on FLIPR-Tetra plate readers (Molecular Devices Inc). Reaction rates were calculated from progress curve slopes typically over 60-150 sec. Dose response curves (rate vs. log inhibitor concentration) were typically fit to a 4-parameter logistic function to extract IC50 values.

Human MAO-A = molecular target: T2, Human MAO-A (Homo sapiens, UniProt P21397); assay: MAO-A inhibition (Amplex Red continuous fluorescence assay); conditions: 30 min pre-incubation at room temp; substrate tyramine; read-out: Human MAO-A IC50
T2 sequence (P21397 1-527): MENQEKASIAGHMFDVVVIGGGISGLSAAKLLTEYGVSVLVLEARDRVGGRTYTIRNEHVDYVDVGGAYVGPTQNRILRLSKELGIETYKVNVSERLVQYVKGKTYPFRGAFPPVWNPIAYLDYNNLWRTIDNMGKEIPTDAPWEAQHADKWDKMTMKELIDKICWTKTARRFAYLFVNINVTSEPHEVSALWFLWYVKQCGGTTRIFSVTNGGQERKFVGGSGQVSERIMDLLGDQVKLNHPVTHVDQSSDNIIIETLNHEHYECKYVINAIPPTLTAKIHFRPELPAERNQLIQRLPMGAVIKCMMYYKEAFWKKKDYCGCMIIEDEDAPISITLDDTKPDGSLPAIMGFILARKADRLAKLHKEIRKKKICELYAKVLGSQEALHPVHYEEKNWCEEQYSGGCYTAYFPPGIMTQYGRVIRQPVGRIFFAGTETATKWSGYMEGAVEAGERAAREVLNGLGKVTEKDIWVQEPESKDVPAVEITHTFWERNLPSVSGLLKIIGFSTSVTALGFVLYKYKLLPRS
Description: as §1, §2

Human VAP-1 = molecular target: T3, Human VAP-1 (Homo sapiens, UniProt Q16853); assay: VAP-1 inhibition assay (Amplex Red continuous fluorescence assay); conditions: 30 min pre-incubation at 37° C.; substrate benzylamine; read-out: Human VAP-1 IC50
T3 sequence (Q16853 1-763): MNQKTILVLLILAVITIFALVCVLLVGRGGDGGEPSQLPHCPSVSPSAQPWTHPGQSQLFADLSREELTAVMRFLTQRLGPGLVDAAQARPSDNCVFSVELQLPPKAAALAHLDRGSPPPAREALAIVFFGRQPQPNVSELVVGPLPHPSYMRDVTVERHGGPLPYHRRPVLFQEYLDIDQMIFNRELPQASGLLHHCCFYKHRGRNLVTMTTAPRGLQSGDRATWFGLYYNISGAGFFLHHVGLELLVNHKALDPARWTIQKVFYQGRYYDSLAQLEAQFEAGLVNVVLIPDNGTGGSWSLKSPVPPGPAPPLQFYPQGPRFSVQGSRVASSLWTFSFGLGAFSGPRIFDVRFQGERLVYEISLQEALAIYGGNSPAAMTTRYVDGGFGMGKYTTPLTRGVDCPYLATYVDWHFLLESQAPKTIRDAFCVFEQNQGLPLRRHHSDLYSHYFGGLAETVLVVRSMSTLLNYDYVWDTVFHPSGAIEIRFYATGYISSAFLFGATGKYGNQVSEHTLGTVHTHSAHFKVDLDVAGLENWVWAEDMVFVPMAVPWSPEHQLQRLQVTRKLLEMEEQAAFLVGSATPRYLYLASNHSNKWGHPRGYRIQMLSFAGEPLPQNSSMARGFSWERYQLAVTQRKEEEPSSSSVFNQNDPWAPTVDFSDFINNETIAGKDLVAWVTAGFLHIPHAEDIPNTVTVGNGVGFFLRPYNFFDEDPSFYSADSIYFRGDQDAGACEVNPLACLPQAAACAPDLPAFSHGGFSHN
Description: as §1, §2

Human DAO = molecular target: T4, Human DAO (Homo sapiens, UniProt P19801); assay: DAO inhibition (Amplex Red continuous fluorescence assay); conditions: 30 min pre-incubation at room temp; substrate histamine; read-out: Human DAO IC50
T4 sequence (P19801 20-751): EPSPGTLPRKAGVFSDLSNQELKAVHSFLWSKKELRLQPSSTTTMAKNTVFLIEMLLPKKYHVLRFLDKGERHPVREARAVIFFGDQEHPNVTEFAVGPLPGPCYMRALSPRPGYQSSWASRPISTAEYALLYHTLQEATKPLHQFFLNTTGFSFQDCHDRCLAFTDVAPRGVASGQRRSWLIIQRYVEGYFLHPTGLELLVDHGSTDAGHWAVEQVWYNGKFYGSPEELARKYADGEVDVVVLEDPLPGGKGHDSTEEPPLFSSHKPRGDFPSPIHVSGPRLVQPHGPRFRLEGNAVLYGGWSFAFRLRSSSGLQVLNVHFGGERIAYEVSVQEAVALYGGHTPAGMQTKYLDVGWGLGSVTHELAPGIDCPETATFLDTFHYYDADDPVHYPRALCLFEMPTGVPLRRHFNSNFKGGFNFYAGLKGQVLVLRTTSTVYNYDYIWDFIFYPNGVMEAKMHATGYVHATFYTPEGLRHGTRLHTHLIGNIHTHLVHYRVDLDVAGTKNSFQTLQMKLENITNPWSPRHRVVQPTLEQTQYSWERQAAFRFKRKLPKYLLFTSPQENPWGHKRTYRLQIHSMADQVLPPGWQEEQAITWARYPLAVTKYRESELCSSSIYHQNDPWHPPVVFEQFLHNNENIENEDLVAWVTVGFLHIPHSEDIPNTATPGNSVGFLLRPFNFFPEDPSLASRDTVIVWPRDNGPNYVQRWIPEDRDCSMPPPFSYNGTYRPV
Description: as §1, §2

SMILES	IC50 (Human MAO-B) [µM]	IC50 (Human MAO-A) [µM]	IC50 (Human VAP-1) [µM]	IC50 (Human DAO) [µM]
NCC(=CF)CN1CCCCC1 (mixture of isomers) [Compound 12, 3-fluoro-2-(piperidin-1-ylmethyl)prop-2-en-1-amine]	> 10	> 10	> 10	–
CC(=O)N(CC(=CF)CN)C1CCCCC1 (mixture of isomers) [Compound 31, hydrochloride]	> 10	> 10	> 10	–
CC(=O)N(C/C(=C/F)CN)c1ccccc1 [Compound 1, (E)-N-(2-(aminomethyl)-3-fluoroalkyl)-N-phenylacetamide hydrochloride]	> 10	> 10	> 10	–
NC/C(=C\F)CNc1ccccc1 [Compound 3, (E)-2-(fluoromethylene)-N^1-phenylpropane-1,3-diamine hydrochloride]	< 3	> 10	< 3	> 10
NC/C(=C\F)CNS(=O)(=O)c1ccccc1 [Compound 17, (E)-N-(2-(aminomethyl)-3-fluoroalkyl)benzenesulfonamide hydrochloride]	> 10	> 10	3 to 10	–
NC/C(=C\F)CNC1CCCCC1 [Compound 22, (E)-N1-cyclohexyl-2-(fluoromethylene)propane-1,3-diamine]	3 to 10	> 10	> 10	–
CC(=O)N(CC(=CF)CN)Cc1ccccc1 [Compound 32]	> 10	> 10	> 10	–
NC/C(=C\F)COc1ccc(C(=O)NCCCCCNC(=O)CCCCC2SCC3NC(=O)NC32)cc1 (centres unmarked) [Compound 76, (E)-4-((2-(aminomethyl)-3-fluoroalkyl)oxy)-N-(5-(5-(2-oxohexahydro-1H-thieno[3,4-d]imidazol-4-yl)pentanamido)pentyl)benzamide]	< 3	> 10	–	< 3
NC/C(=C\F)COc1ccc(C(=O)NCCOCCOCCOCCNC(=O)CCCCC2SCC3NC(=O)NC32)cc1 (centres unmarked) [Compound 77, (E)-4-((2-(aminomethyl)-3-fluoroalkyl)oxy)-N-(13-oxo-17-(2-oxohexahydro-1H-thieno[3,4-d]imidazol-4-yl)-3,6,9-trioxa-12-azaheptadecyl)benzamide]	3 to 10	> 10	–	< 3

Other lines, results leading:

IC50 (Human MAO-B) [µM]	IC50 (Human MAO-A) [µM]	IC50 (Human VAP-1) [µM]	IC50 (Human DAO) [µM]	SMILES
> 10	> 10	3 to 10	–	NC/C(=C\F)COc1cccc2[nH]cnc12 [Compound 2, hydrochloride]
> 10	> 10	< 3	< 3	NC/C(=C\F)COc1ccc(-c2ncc[nH]2)cc1 [Compound 4, (E)-2-((4-(1H-imidazol-2-yl)phenoxy)methyl)-3-fluoroprop-2-en-1-amine]
< 3	< 3	< 3	> 10	NC/C(=C\F)COCc1ccccc1 [Compound 5, (E)-2-((benzyloxy)methyl)-3-fluoroprop-2-en-1-amine hydrochloride]
< 3	< 3	< 3	3 to 10	NC/C(=C/F)COCc1ccccc1 [Compound 6, (Z)-2-((benzyloxy)methyl)-3-fluoroprop-2-en-1-amine hydrochloride]
< 3	3 to 10	< 3	3 to 10	CCNC(=O)Nc1ccc(OC/C(=C/F)CN)cc1 [Compound 7, (E)-1-(4-((2-(aminomethyl)-3-fluoroalkyl)oxy)phenyl)-3-ethylurea hydrochloride]
< 3	< 3	< 3	< 3	NC/C(=C\F)COc1cccc2scnc12 [Compound 8, (E)-2-((benzo[d]thiazol-4-yloxy)methyl)-3-fluoroprop-2-en-1-amine hydrochloride]
< 3	3 to 10	< 3	> 10	NC/C(=C/F)COc1cccc2scnc12 [Compound 9, (Z)-2-((benzo[d]thiazol-4-yloxy)methyl)-3-fluoroprop-2-en-1-amine hydrochloride]
< 3	> 10	< 3	< 3	NC/C(=C\F)COc1ccc(-c2nc3ccccc3[nH]2)cc1 [Compound 10, (E)-2-((4-(1H-benzo[d]imidazol-2-yl)phenoxy)methyl)-3-fluoroprop-2-en-1-amine hydrochloride]
< 3	> 10	< 3	–	Cn1ccnc1-c1ccc(OC/C(=C/F)CN)cc1 [Compound 27, (E)-3-fluoro-2-((4-(1-methyl-1H-imidazol-2-yl)phenoxy)methyl)prop-2-en-1-aminedihydrochloride]
